The record followed here is patent US8741940B2, “Microbicidal composition” (Rohm and Haas Company, priority 2005, dated 2014).

Type in all cases: cell-based
Assay [1] deals with Escherichia coli (E. coli—ATCC #8739). Put plainly: Synergy test, microtiter plate high resolution MIC assay, bacterium in M9GY medium. More on the design: key to SI (synergy index): SI = Qa/QA + Qb/QB; >1 antagonism, lower SI = greater synergy; Qa (First Component A) / Qb (Second Component B): unit: ppm. The note with it: for MIC: Escherichia coli. The procedure: (§1) When the sum of Qa/QA and Qb/QB is greater than one, antagonism is indicated. […] The lower the SI, the greater the synergy shown by that particular mixture. The minimum inhibitory concentration (MIC) of a microbicide is the lowest concentration tested under a specific set of conditions that prevents the growth of added microorganisms.
(§2) Synergy tests were conducted using standard microtiter plate assays with media designed for optimal growth of the test microorganism. Minimal salt medium supplemented with 0.2% glucose and 0.1% yeast extract (M9GY medium) was used for testing bacteria; Potato Dextrose Broth (PDB medium) was used for testing yeast and mold. In this method, a wide range of combinations of microbicides and other personal care raw materials was tested by conducting high resolution MIC assays in the presence of various concentrations of BBIT or MBIT. High resolution MICs were determined by adding varying amounts of microbicide to one column of a microtitre plate and doing subsequent […] dilutions using an automated liquid handling system to obtain a series of endpoints ranging from 2 ppm to 10,000 ppm active ingredient.
(§3) The bacteria were used at a concentration of about 5 ×10^6 bacteria per mL and the yeast and mold at 5×10^5 fungi per mL. These microorganisms are representative of natural contaminants in many consumer and industrial applications. […] (yeast and mold) or 30° C. (bacteria).
(§4) In each test, First Component (A) was BBIT and the Second Component (B) was the other commercial microbicide.
(§5) In each test, First Component (A) was MBIT and the Second Component (B) was the other commercial microbicide.

In assay [2] the test system is Candida albicans (C. albicans—ATCC 10231). As to the kind of experiment: Synergy test, microtiter plate high resolution MIC assay, yeast in PDB medium. More on the design: key to SI (synergy index): SI = Qa/QA + Qb/QB; >1 antagonism, lower SI = greater synergy; Qb (Second Component B) / Qa (First Component A): unit: ppm. The note with it: for MIC: Candida albicans. The method, then: as §1, §2, §3, §4, §5

Assay [3] deals with Aspergillus niger (A. niger—ATCC 16404). As to the kind of experiment: Synergy test, microtiter plate high resolution MIC assay, mold in PDB medium. The note with it: for MIC: Aspergillus niger. More on the design: key to SI (synergy index): SI = Qa/QA + Qb/QB; >1 antagonism, lower SI = greater synergy; Qb (Second Component B) / Qa (First Component A): unit: ppm. The procedure:
as §1, §2, §3, §4, §5

Where [4] appears, read: A=MBIT, B=Benzalkonium chloride (Hyamine 3500), E. coli 8739 - M9GY, 24 hours.
Where [5] appears, read: A=MBIT, B=Benzalkonium chloride (Hyamine 3500), C. albicans 10231 - PDB, 24 hours.
The mark [6] stands for this setting: A. niger 16404, PDB, 7 days, 25° C.
The mark [7] stands for this setting: A=MBIT, B=Benzalkonium chloride (Hyamine 3500), A. niger 16404 - PDB, 4 days.
[8] abbreviates: C. albicans 10231, PDB, 24 hours.
Where [9] appears, read: C. albicans 10231, PDB, 24 hours, alone where Qa = 0, otherwise in the mixture.
Where [10] appears, read: A=MBIT, B=2-bromo-2-nitro-propane-1,3-diol (BNPD), E. coli 8739 - M9GY, 24 hours.
Setting [11] is: A=MBIT, B=2-bromo-2-nitro-propane-1,3-diol (BNPD), C. albicans 10231 - PDB, 24 hours.
Where [12] appears, read: A=MBIT, B=2-bromo-2-nitro-propane-1,3-diol (BNPD), A. niger 16404 - PDB, 4 days.
Where [13] appears, read: A=MBIT, B=Benzisothiazolinone (BIT), E. coli 8739 - M9GY, 24 hours.
The mark [14] stands for this setting: A=MBIT, B=Benzisothiazolinone (BIT), C. albicans 10231 - PDB, 48 hours.
The mark [15] stands for this setting: A=MBIT, B=Benzisothiazolinone (BIT), A. niger 16404 - PDB, 7 days.

Structures can show the parent of a compound that is named as a salt. Where two headings read alike, the source gives them in different places.

In the case of Benzalkonium chloride, the “Qb (Second Component B)” value in assay [1] (setting [4]) is given as 10; in assay [2] (setting [5]), 60; in assay [3] (setting [7]) it was 200. In addition, the “SI (synergy index)” value in assay [1] (setting [4]), in assay [2] (setting [5]) and in assay [3] (setting [7]) was 1.00 each time. Besides, the “MIC of the component acting alone (QA / QB)” value in assay [1] (E. coli 8739, M9GY, 48 hours, 30° C.) came out at 3 ppm; in assay [2] (C. albicans 10231, PDB, 24 hours, 25° C.), 60 ppm; in assay [3] (setting [6]), 200 ppm.
As to `O=C(O)CN(CCN(CC(=O)O)CC(=O)O)CC(=O)O` [Ethylenediamine tetraacetic acid], the “SI (synergy index)” value in assay [1], in assay [2] and in assay [3] was 1.00 throughout. Moreover, the MIC was 40000 µg/mL in assay [1] (ATCC8739, 24 h, read-out: Qb (concentration of second component producing the end point, MIC)); 1000 µg/mL in assay [2] (ATCC10231, 48 h, read-out: Qb (concentration of second component producing the end point, MIC)); 1600 µg/mL in assay [3] (ATCC16404, 72 h, read-out: Qb (concentration of second component producing the end point, MIC)).
Take `CC(=O)C1C(=O)C=C(C)OC1=O` (stereo not drawn) [dehydroacetic acid, sodium salt]: the SI in assay [1] (E. coli 8739 - M9GY, 24 hours, BBIT with SDHA) was 1.00; in assay [2] (C. albicans 10231 - PDB, 24 hours, BBIT with SDHA) it was 1.00; in assay [3] (A. niger 16404 - PDB, 7 days, BBIT with SDHA), 1.00.
In the case of Hexylene glycol, the “SI (synergy index)” value in assay [1] (E. coli 8739, M9GY, 24 hours) amounted to 1.00; in assay [2] (setting [8]), 1.00; in assay [3] (A. niger 16404, PDB, 3 days), 1.00. Further, the “Qb (concentration of second component producing the end point, MIC)” value was 20000 ppm in assay [1] (E. coli 8739, M9GY, 24 hours, alone where Qa = 0, otherwise in the mixture); 20000 ppm in assay [2] (setting [9]); 20000 ppm in assay [3] (A. niger 16404, PDB, 3 days, alone where Qa = 0, otherwise in the mixture). The SI in assay [1] (E. coli 8739 - M9GY, 24 hours, BBIT + hexylene glycol) stood at 1.00; in assay [2] (C. albicans 10231 - PDB, 24 hours, BBIT + hexylene glycol), 1.00; in assay [3] (A. niger 16404 - PDB, 3 days, BBIT + hexylene glycol), 1.00. Further, the “Qb (Second Component B = Hexylene glycol)” value is listed as 20000 in assay [1] (E. coli 8739 - M9GY, 24 hours, hexylene glycol alone (Qa 0) or in mixture with BBIT); 20000 in assay [2] (C. albicans 10231 - PDB, 24 hours, hexylene glycol alone (Qa 0) or in mixture with BBIT); 20000 in assay [3] (A. niger 16404 - PDB, 3 days, hexylene glycol alone (Qa 0) or in mixture with BBIT).
As for `OCCCCO` [Butylene glycol], the “Qb (Second Component B)” value was 20000 in assay [1], 20000 in assay [2] and 10000 in assay [3]. The “SI (synergy index)” value in assay [1], in assay [2] and in assay [3] was 1.00 in each case. Further, the MIC is 20000 µg/mL in assay [1] (ATCC8739, 48 h, read-out: MIC of the component acting alone (QA / QB)); 20000 µg/mL in assay [2] (ATCC10231, 24 h, read-out: MIC of the component acting alone (QA / QB)); 10000 µg/mL in assay [3] (ATCC16404, 72 h, read-out: MIC of the component acting alone (QA / QB)).
On to `COC(=O)c1ccc(O)cc1` [Methylparaben], for which the “SI (synergy index)” value came out at 1.00 in assay [1] (E. coli 8739, M9GY, 24 hours); 1.00 in assay [2] (C. albicans 10231, PDB, 48 hours); 1.00 in assay [3] (A. niger 16404, PDB, 7 days). The SI worked out at 1.00 in assay [1] (E. coli 8739 - M9GY, 72 hours, BBIT with Methylparaben); 1.00 in assay [2] (C. albicans 10231 - PDB, 24 hours, BBIT with Methylparaben); 1.00 in assay [3] (A. niger 16404 - PDB, 3 days, BBIT with Methylparaben). Also, the MIC was found to be 2000 µg/mL in assay [1] (ATCC8739, E. coli 8739, M9GY, 24 hours, alone where Qa = 0, otherwise in the mixture, read-out: Qb (concentration of second component producing the end point, MIC)); 2000 µg/mL in assay [2] (ATCC10231, C. albicans 10231, PDB, 48 hours, alone where Qa = 0, otherwise in the mixture, read-out: Qb (concentration of second component producing the end point, MIC)); 800 µg/mL in assay [3] (ATCC16404, 168 h, A. niger 16404, PDB, 7 days, alone where Qa = 0, otherwise in the mixture, read-out: Qb (concentration of second component producing the end point, MIC)).
For the compound `O=[N+]([O-])C(Br)(CO)CO` [BNPD, 2-bromo-2-nitro-propane-1,3-diol], the “Qb (Second Component B)” value was 8 in assay [1] (setting [10]), 1000 in assay [2] (setting [11]) and 2000 in assay [3] (setting [12]). Besides, the “SI (synergy index)” value in assay [1] (setting [10]), in assay [2] (setting [11]) and in assay [3] (setting [12]) was 1.00 in each case. The MIC in assay [1] (ATCC8739, E. coli 8739, M9GY, 48 hours, 30° C., read-out: MIC of the component acting alone (QA / QB)) came out at 10 µg/mL; in assay [2] (ATCC10231, C. albicans 10231, PDB, 48 hours, 25° C., read-out: MIC of the component acting alone (QA / QB)), 2000 µg/mL; in assay [3] (ATCC16404, 168 h, A. niger 16404, PDB, 7 days, 25° C., read-out: MIC of the component acting alone (QA / QB)), 2000 µg/mL.
Turning to “cocamidopropyl PG-dimonium chloride phosphate”, the “SI (synergy index)” value in assay [1] (E. coli 8739, M9GY, 48 hours) stood at 1.00; in assay [2] (setting [8]), 1.00; in assay [3] (A. niger 16404, PDB, 4 days), 1.00. Further, the “Qb (concentration of second component producing the end point, MIC)” value in assay [1] (E. coli 8739, M9GY, 48 hours, alone where Qa = 0, otherwise in the mixture) came to 100 ppm; in assay [2] (setting [9]), 1000 ppm; in assay [3] (A. niger 16404, PDB, 4 days, alone where Qa = 0, otherwise in the mixture) it was 1000 ppm. The SI in assay [1] (E. coli 8739 - M9GY, 72 hours, BBIT with Phospholipid PTC) is 1.00; in assay [2] (C. albicans 10231 - PDB, 24 hours, BBIT with Phospholipid PTC) it was 1.00; in assay [3] (A. niger 16404 - PDB, 3 days, BBIT with Phospholipid PTC), 1.00.
With `O=c1[nH]sc2ccccc12` [Benzisothiazolinone, 1,2-benzisothiazolin-3-one], the “Qb (Second Component B)” value in assay [1] (setting [13]) stood at 20; in assay [2] (setting [14]) it was 30; in assay [3] (setting [15]), 300. Besides, the “SI (synergy index)” value in assay [1] (setting [13]), in assay [2] (setting [14]) and in assay [3] (setting [15]) was 1.00 each time. In addition, the “MIC of the component acting alone (QA / QB)” value is listed as 8 ppm in assay [1] (E. coli 8739, M9GY, 72 hours, 30° C.); 30 ppm in assay [2] (C. albicans 10231, PDB, 48 hours, 25° C.); 100 ppm in assay [3] (setting [6]).
